# Results published in ChEMBL document CHEMBL2331144, “Synthesis and anticancer activity of analogues of phenstatin, with a phenothiazine A-ring, as a new class of microtubule-targeting agents” (Bioorg Med Chem Lett, 2013).
# Tests used:
# [1] = Growth inhibition of human NCI-ADR-RES cells at 10 uM after 48 hrs by sulforhodamine B assay; format: functional; conditions: read-out: GI
# [2] = species on record: Ovis aries; test: Inhibition of sheep brain tubulin polymerization at 100 uM using DAPI by fluorimetry
# [3] = tested on: MOLT-4; test: Growth inhibition of human MOLT4 cells at 10 uM after 48 hrs by sulforhodamine B assay; format: functional; conditions: MOLT-4, 48 h, read-out: GI
# [4] = tested on: MDA-MB-231; test: Growth inhibition of human MDA-MB-231 cells at 10 uM after 48 hrs by sulforhodamine B assay; format: functional; conditions: MDA-MB-231, 48 h, read-out: GI
# [5] = tested on: HCT-116; test: Growth inhibition of human HCT116 cells at 10 uM after 48 hrs by sulforhodamine B assay; format: functional; conditions: HCT-116, 48 h, read-out: GI
# [6] = tested on: CAKI-1; test: Growth inhibition of human CAKI-1 cells at 10 uM after 48 hrs by sulforhodamine B assay; format: functional; conditions: CAKI-1, 48 h, read-out: GI
# [7] = tested on: MCF7; test: Growth inhibition of human MCF7 cells at 10 uM after 48 hrs by sulforhodamine B assay; format: functional; conditions: MCF7, 48 h, read-out: GI
# [8] = tested on: KM12; test: Growth inhibition of human KM12 cells at 10 uM after 48 hrs by sulforhodamine B assay; format: functional; conditions: KM12, 48 h, read-out: GI
# [9] = tested on: HOP-92; test: Growth inhibition of human HOP92 cells at 10 uM after 48 hrs by sulforhodamine B assay; format: functional; conditions: HOP-92, 48 h, read-out: GI
# [10] = tested on: SF-295; test: Growth inhibition of human SF295 cells at 10 uM after 48 hrs by sulforhodamine B assay; format: functional; conditions: SF-295, 48 h, read-out: GI
# [11] = tested on: OVCAR-4; test: Growth inhibition of human OVCAR4 cells at 10 uM after 48 hrs by sulforhodamine B assay; format: functional; conditions: OVCAR-4, 48 h, read-out: GI
# [12] = tested on: HOP-62; test: Growth inhibition of human HOP62 cells at 10 uM after 48 hrs by sulforhodamine B assay; format: functional; conditions: HOP-62, 48 h, read-out: GI
# [13] = tested on: UACC-62; test: Growth inhibition of human UACC62 cells at 10 uM after 48 hrs by sulforhodamine B assay; format: functional; conditions: UACC-62, 48 h, read-out: GI
# [14] = tested on: LOX IMVI; test: Growth inhibition of human LOXIMVI cells at 10 uM after 48 hrs by sulforhodamine B assay; format: functional; conditions: read-out: GI
# [15] = tested on: NCI-H522; test: Growth inhibition of human NCI-H522 cells at 10 uM after 48 hrs by sulforhodamine B assay; format: functional; conditions: NCI-H522, 48 h, read-out: GI
# [16] = tested on: COLO 205; test: Growth inhibition of human COLO205 cells at 10 uM after 48 hrs by sulforhodamine B assay; format: functional; conditions: COLO 205, 48 h, read-out: GI
# [17] = tested on: UO-31; test: Growth inhibition of human UO31 cells at 10 uM after 48 hrs by sulforhodamine B assay; format: functional; conditions: UO-31, 48 h, read-out: GI
# [18] = tested on: K562; test: Growth inhibition of human K562 cells at 10 uM after 48 hrs by sulforhodamine B assay; format: functional; conditions: K562, 48 h, read-out: GI
# [19] = tested on: HL-60(TB); test: Growth inhibition of human HL-60(TB) cells at 10 uM after 48 hrs by sulforhodamine B assay; format: functional; conditions: HL-60, 48 h, read-out: GI
# [20] = tested on: RPMI-8226; test: Growth inhibition of human RPMI8226 cells at 10 uM after 48 hrs by sulforhodamine B assay; format: functional; conditions: RPMI-8226, 48 h, read-out: GI
# [21] = tested on: PC-3; test: Growth inhibition of human PC3 cells at 10 uM after 48 hrs by sulforhodamine B assay; format: functional; conditions: PC-3, 48 h, read-out: GI
# [22] = tested on: RXF 393; test: Growth inhibition of human RXF393 cells at 10 uM after 48 hrs by sulforhodamine B assay; format: functional; conditions: RXF 393, 48 h, read-out: GI
# [23] = tested on: SNB-75; test: Growth inhibition of human SNB75 cells at 10 uM after 48 hrs by sulforhodamine B assay; format: functional; conditions: SNB-75, 48 h, read-out: GI
# [24] = tested on: 786-0; test: Growth inhibition of human 786-0 cells at 10 uM after 48 hrs by sulforhodamine B assay; format: functional; conditions: 786-0, 48 h, read-out: GI
# [25] = tested on: HCT-15; test: Growth inhibition of human HCT15 cells at 10 uM after 48 hrs by sulforhodamine B assay; format: functional; conditions: HCT-15, 48 h, read-out: GI
# [26] = tested on: Malme-3M; test: Growth inhibition of human MALME-3M cells at 10 uM after 48 hrs by sulforhodamine B assay; format: functional; conditions: read-out: GI
# [27] = tested on: CCRF-CEM; test: Growth inhibition of human CCRF-CEM cells at 10 uM after 48 hrs by sulforhodamine B assay; format: functional; conditions: read-out: GI
# [28] = tested on: SK-MEL-5; test: Growth inhibition of human SK-MEL-5 cells at 10 uM after 48 hrs by sulforhodamine B assay; format: functional; conditions: SK-MEL-5, 48 h, read-out: GI
# [29] = tested on: MDA-MB-435; test: Growth inhibition of human MDA-MB-435 cells at 10 uM after 48 hrs by sulforhodamine B assay; format: functional; conditions: MDA-MB-435, 48 h, read-out: GI
# [30] = tested on: T47D; test: Growth inhibition of human T47D cells at 10 uM after 48 hrs by sulforhodamine B assay; format: functional; conditions: read-out: GI
# [31] = tested on: MDA-MB-468; test: Growth inhibition of human MDA-MB-468 cells at 10 uM after 48 hrs by sulforhodamine B assay; format: functional; conditions: MDA-MB-468, 48 h, read-out: GI
smiles,measurement,setting,value
O=C(c1cnc2ccccn12)N1c2ccccc2Sc2ccccc21,inhibition of growth at 10 µM,[1],12.8%
same,inhibition,[2],38%
same,inhibition of growth at 10 µM,[3],0%
same,inhibition of growth at 10 µM,[4],7.4%
same,inhibition of growth at 10 µM,[5],17.8%
same,inhibition of growth at 10 µM,[6],5.9%
same,inhibition of growth at 10 µM,[7],4.6%
same,inhibition of growth at 10 µM,[8],14%
same,inhibition of growth at 10 µM,[9],33.8%
same,inhibition of growth at 10 µM,[10],16%
same,inhibition of growth at 10 µM,[11],0%
same,inhibition of growth at 10 µM,[12],3.4%
same,inhibition of growth at 10 µM,[13],39.3%
same,inhibition of growth at 10 µM,[14],12%
same,inhibition of growth at 10 µM,[15],6.6%
same,inhibition of growth at 10 µM,[16],19.1%
same,inhibition of growth at 10 µM,[17],0%
same,inhibition of growth at 10 µM,[18],2.3%
same,inhibition of growth at 10 µM,[19],38.1%
same,inhibition of growth at 10 µM,[20],36%
same,inhibition of growth at 10 µM,[21],45.1%
same,inhibition of growth at 10 µM,[22],0%
same,inhibition of growth at 10 µM,[23],0%
same,inhibition of growth at 10 µM,[24],5.3%
same,inhibition of growth at 10 µM,[25],17.3%
same,inhibition of growth at 10 µM,[26],2%
same,inhibition of growth at 10 µM,[27],3.1%
same,inhibition of growth at 10 µM,[28],14.6%
same,inhibition of growth at 10 µM,[29],6.7%
same,inhibition of growth at 10 µM,[30],19.2%
same,inhibition of growth at 10 µM,[31],7.3%
